Experimental data taken from patent EP4768484A1, “HETEROCYCLIC FUSED RING COMPOUND, AND COMPOSITION AND USE THEREOF” (Shenzhen TargetRx, Inc., priority 2023, dated 2025).

Key:
Format in all cases: cell-based
K562 cells = assay: Cell growth inhibitory activity assay (CellTiter-Glo), K562 cells; conditions: Homo sapiens, 72 h, CTG cell viability
Procedure: (§1) In this assay, the Celltiter-Glo (CTG) kit provided by Promega was used, and it is a homogeneous cell viability assay method. The cell viability of cultured cells was measured by quantifying ATP. K562 cells were purchased from Nanjing Kebai, product number CBP60529; Ba/F3 parental cells were purchased from RIKEN BRC, product number RCB0805; other cells containing BCR-ABL1 WT, BCR-ABL1 T315I, BCR-ABL1 T315M, BCR-ABL1 Y253H/E255K, BCR-ABL1 E255V/T3151, BCR-ABL1 A424T, BCR-ABL1 A337V, BCR-ABL1 P465S, BCR-ABL1 V468F, and BCR-ABL1 I502L were all monoclonal engineered cell lines obtained by transducting Ba/F3 parental cells with the lentivirus plasmids containing WT or corresponding mutated BCR-ABL1.
(§2) The steps of cell viability assay are as follows: • a) Cells in logarithmic growth phase were collected. Cell suspension was prepared and the cells were counted. Concentration of the cells was calculated. • b) The cell suspension was diluted to the required concentration and then added to the middle wells of a 96-well plate, and PBS was added to the edge wells. The wells with no cells and only culture medium were used as blank controls. • c) In addition to the cell plate used for compound analysis, another 96-well plate was prepared as a T0 plate, and 3-6 blank wells and 3-6 cell wells were added. The next day, CTG was used to test the cell viability as the T0 viability value of the cells. • d) The cell plate was incubated at 37 °C in a 5% CO2 incubator overnight. • e) The next day, each concentration of a compound subjected to a gradient dilution was added, and the cell plate was incubated at 37 °C in a 5% CO2 incubator for 72 h. The wells with no compound and only 0.5% DMSO were used as positive controls for cell growth. • f) CTG reagent (CellTiter-Glo kit) was added according to the manufacturer's instructions to test the cell viability value. • g) The plate was read using Biotek cytation3.0 microplate reader and the data were exported. • h) IC50 was calculated using GraphPad Prism 7.0 software.
(§3) The IC50 (half-maximal inhibitory concentration) of the compound was obtained using the following nonlinear fitting formula: Y = Bottom + (Top−Bottom)/(1+10^(∧)((LogIC50−X)*HillSlope)) [formula] • X: Log value of the compound concentration • Y: Inhibition rate (% inhibition) • Top: Maximum response • Bottom: Baseline response • HillSlope: Slope of the curve
(§4) The formula for calculating cell inhibition rate (inhibition rate %) was: [formula]

Ba/F3 BCR-ABL1 WT = molecular target: T1, Ba/F3 BCR-ABL1 WT (Homo sapiens, UniProt P00519+P11274); assay: Cell growth inhibitory activity assay (CellTiter-Glo), Ba/F3 BCR-ABL1 WT cells; conditions: 72 h, CTG cell viability
T1 construct: BCR (N-terminal fusion partner of the oncoprotein); expressed in transfected cells; host or cells: Ba/F3 (lentiviral transduction, monoclonal line)
Procedure: as §1, §2, §3, §4

Ba/F3 BCR-ABL1 T315I = molecular target: T2, Ba/F3 BCR-ABL1 T315I (Homo sapiens, UniProt P00519+P11274, T315I); assay: Cell growth inhibitory activity assay (CellTiter-Glo), Ba/F3 BCR-ABL1 T315I cells; conditions: 72 h, CTG cell viability
T2 construct: BCR (N-terminal fusion partner of the oncoprotein); expressed in transfected cells; host or cells: Ba/F3 (lentiviral transduction, monoclonal line)
Procedure: as §1, §2, §3, §4

Ba/F3 parental cells = assay: Cell growth inhibitory activity assay (CellTiter-Glo), Ba/F3 parental cells; conditions: Mus musculus, BaF3, 72 h, CTG cell viability, read-out: IC50 Ba/F3 BCR-ABL1 Parental
Procedure: as §1, §2, §3, §4

SMILES	IC50 (K562 cells) [nM]	IC50 (Ba/F3 BCR-ABL1 WT) [nM]	IC50 (Ba/F3 BCR-ABL1 T315I) [nM]	IC50 (Ba/F3 parental cells) [nM]
CC(=O)NC1CCC2c3cc(C(=O)Nc4ccc(OC(F)(F)Cl)cc4)cc(-c4cnccn4)c3N(C(C)C)C12 (racemic) [T-12, 3-acetamido-N-(4-(chlorodifluoromethoxy)phenyl)-4-isopropyl-5-(pyrazin-2-yl)-1,2,3,3a,4,8b-hexahydrocyclopenta[b]indole-7-carboxamide]	5 to 50	5 to 50	50 to 1000	> 1000
O=C(Nc1ccc(OC(F)(F)Cl)cc1)c1cnc(N2CC[C@@H](F)C2)c(-c2cnc3c(c2)-c2n[nH]cc2C3)c1 [T-1, (R)-N-(4-(chlorodifluoromethoxy)phenyl)-5-(2,4-dihydropyrazolo[3',4':3,4]cyclopenta[1,2-b]pyridin-7-yl)-6-(3-fluoropyrrolidin-1-yl)nicotinamide]	≤ 5	≤ 5	≤ 5	> 1000
O=C(Nc1ccc(OC(F)(F)Cl)cc1)c1cnc(N2CC[C@@H](F)C2)c(-c2cnc3c(c2)-c2nn(-c4ncccn4)cc2C3)c1 [T-5, (R)-N-(4-(chlorodifluoromethoxy)phenyl)-6-(3-fluoropvrrolidin-1-yl)-5-(2-(pyrimidin-2-yl)-2,4-dihydropyrazolo[3',4':3,4]cyclopenta[1,2-b]pyridin-7-yl)nicotinamide]	≤ 5	≤ 5	≤ 5	> 1000
O=C(Nc1ccc(OC(F)(F)Cl)cc1)c1cnc(N2CC[C@@H](F)C2)c(-c2cnc3c(c2)-c2nn(-c4ncc(F)cn4)cc2C3)c1 [T-6-A, (R)-N-(4-(chlorodifluoromethoxy)phenyl)-5-(2-(5-fluoropyrimidin-2-yl)-2,4-dihydropyrazolo[3',4':3,4]cyclopenta[1,2-b]pyridin-7-yl)-6-(3-fluoropyrrolidin-1-yl)nicotinamide]	≤ 5	≤ 5	≤ 5	> 1000
O=C(Nc1ccc(OC(F)(F)Cl)cc1)c1cnc(N2CC[C@@H](F)C2)c(-c2cnc3c(c2)-c2c(cnn2-c2ncc(F)cn2)C3)c1 [T-6-B, (R)-N-(4-(chlorodifluoromethoxy)phenyl)-5-(1-(5-fluoropyrimidin-2-yl)-1,4-dihydropyrazolo[3',4':3,4]cyclopenta[1,2-b]pyridin-7-yl)-6-(3-fluoropyrrolidin-1-yl)nicotinamide]	≤ 5	≤ 5	5 to 50	> 1000
CN1Cc2ncc(-c3cc(C(=O)Nc4ccc(OC(F)(F)Cl)cc4)cc4c3C3(CCCCC3)C(=O)N4)cc2C1=O [T-8, N-(4-(chlorodifluoromethoxy)phenyl)-4'-(6-methyl-5-oxo-6,7-dihydro-5H-pyrrolo[3,4-b]pyridin-3-yl)-2'-oxospiro[cyclohexane-1,3'-indoline]-6'-carboxamide]	≤ 5	≤ 5	5 to 50	> 1000
C[C@@H]1COCc2nc3cc(C(=O)Nc4ccc(OC(F)(F)Cl)cc4)cc(-c4cnc5c(c4)-c4nn(C(F)F)cc4C5)c3n21 [T-51, (R)-N-(4-(chlorodifluoromethoxy)phenyl)-6-(2-(difluoromethyl)-2,4-dihydropyrazolo[3',4':3,4]cyclopenta[1,2-b]pyridin-7-yl)-4-methyl-3,4-dihydro-1H-benzo[4,5]imidazo[2,1-c][1,4]oxazine-8-carboxamide]	≤ 5	5 to 50	–	> 1000
[2H]C1([2H])c2cn(-c3ncccn3)nc2-c2cc(-c3cc(C(=O)Nc4ccc(OC(F)(F)Cl)cc4)cc4nc5n(c34)[C@H](C)COC5)cnc21 [T-105, (R)-N-(4-(chlorodifluoromethoxy)phenyl)-4-methyl-6-(2-(pyrimidin-2-yl)-2,4-dihydropyrazolo[3',4':3,4]cyclopenta[1,2-b]pyridin-7-yl-4,4-d2)-3,4-dihydro-1H-benzo[4,5]imidazo[2,1-c][1,4]oxazine-8-carboxamide]	≤ 5	≤ 5	≤ 5	–
C[C@@H]1COCc2nc3cc(C(=O)Nc4ccc(OC(F)(F)Cl)cc4)cc(-c4cnc5c(c4)-c4nn(-c6ncccn6)cc4C5O)c3n21 (stereo partly drawn) [T-106, (4R)-N-(4-(chlorodifluoromethoxy)phenyl)-6-(4-hydroxy-2-(pyrimidin-2-yl)-2,4-dihydropyrazolo[3',4':3,4]cyclopenta[1,2-b]pyridin-7-yl)-4-methyl-3,4-dihydro-1H-benzo[4,5]imidazo[2,1-c][1,4]oxazine-8-carboxamide]	≤ 5	≤ 5	≤ 5	–
C[C@@H]1COCc2nc3cc(C(=O)Nc4ccc(OC(F)(F)Cl)cc4)cc(-c4cnc5c(c4)-c4nn(-c6ncccn6)cc4C5F)c3n21 (stereo partly drawn) [T-107, (4R)-N-(4-(chlorodifluoromethoxy)phenyl)-6-(4-fluoro-2-(pyrimidin-2-yl)-2,4-dihydropyrazolo[3',4':3,4]cyclopenta[1,2-b]pyridin-7-yl)-4-methyl-3,4-dihydro-1H-benzo[4,5]imidazo[2,1-c][1,4]oxazine-8-carboxamide]	≤ 5	≤ 5	≤ 5	–
Cn1ccc(-c2ccnc(-n3cc4c(n3)-c3cc(-c5cc(C(=O)Nc6ccc(OC(F)(F)Cl)cc6)cc6c5C5(CCCCC5)C(=O)N6)cnc3C4)n2)n1 [T-138, N-(4-(chlorodifluoromethoxy)phenyl)-4'-(2-(4-(1-methyl-1H-pyrazol-3-yl)pyrimidin-2-yl)-2,4-dihydropyrazolo[3',4':3,4]cyclopenta[1,2-b]pyridin-7-yl)-2'-oxospiro[cyclohexane-1,3'-indoline]-6'-carboxamide]	≤ 5	≤ 5	≤ 5	–
O=C(Nc1ccc(OC(F)(F)Cl)cc1)c1cc2c(c(-c3cnc4c(c3)-c3nn(-c5nccc(-c6ccc(F)nc6)n5)cc3C4)c1)C1(CCCCC1)C(=O)N2 [T-139, N-(4-(chlorodifluoromethoxy)phenyl)-4'-(2-(4-(6-fluoropyridin-3-yl)pyrimidin-2-yl)-2,4-dihydropyrazolo[3',4':3,4]cyclopenta[1,2-b]pyridin-7-yl)-2'-oxospiro[cyclohexane-1,3'-indoline]-6'-carboxamide]	≤ 5	≤ 5	≤ 5	–
O=C(Nc1ccc(OC(F)(F)Cl)cc1)c1cc2c(c(-c3cnc4c(c3)-c3nn(-c5nccc(-c6cncc(F)c6)n5)cc3C4)c1)C1(CCCCC1)C(=O)N2 [T-140, N-(4-(chlorodifluoromethoxy)phenyl)-4'-(2-(4-(5-fluoropyridin-3-yl)pyrimidin-2-yl)-2,4-dihydropyrazolo[3',4':3,4]cyclopenta[1,2-b]pyridin-7-yl)-2'-oxospiro[cyclohexane-1,3'-indoline]-6'-carboxamide]	≤ 5	≤ 5	≤ 5	–
O=C(Nc1ccc(OC(F)(F)Cl)cc1)c1cnc(N2CC[C@@H](F)C2)c(-c2cnc3c(c2)-c2nn(-c4nccc(-c5ccc(F)nc5)n4)cc2C3)c1 [T-141, (R)-N-(4-(chlorodifluoromethoxy)phenyl)-5-(2-(4-(6-fluoropyridin-3-yl)pyrimidin-2-yl)-2,4-dihydropyrazolo[3',4':3,4]cyclopenta[1,2-b]pyridin-7-yl)-6-(3--fluoropyrrolidin-1-yl)nicotinamide]	≤ 5	≤ 5	≤ 5	–
O=C(Nc1ccc(OC(F)(F)Cl)cc1)c1cnc(N2CC[C@@H](F)C2)c(-c2cnc3c(c2)-c2nn(-c4nccc(-c5cncc(F)c5)n4)cc2C3)c1 [T-142, (R)-N-(4-(chlorodifluoromethoxy)phenyl)-5-(2-(4-(5-fluoropyridin-3-yl)pyrimidin-2-yl)-2,4-dihydropyrazolo[3',4':3,4]cyclopenta[1,2-b]pyridin-7-yl)-6-(3-fluoropyrrolidin-1-yl)nicotinamide]	≤ 5	≤ 5	≤ 5	–
